# Measurements as given in patent US8067424B2, “Selective inhibitors for cyclin-dependent kinases” (Emory University, priority 2007, dated 2011).
# Where two headings read alike, the source gives them in different places.
# Key:
# Type in all cases: biochemical
# [1] = biological target: MELK (Homo sapiens, UniProt Q14680); experiment: Kinase screen: MELK assay
# Protocol: (§1) Generally, the same procedure was used for all assays. Since the total assay volume was 25.5 microliters, 0.5 microliters of inhibitors at 51× assay concentration were added to the plates before any other addition.
# (§2) The basic procedure was to add 0.5 microliters inhibitor/control in DMSO to plate. Fifteen microliters of enzyme/substrate/buffer mix were added and incubated for 5 min. Ten microliters MgATP at the relevant concentration were added and incubated for 30 min. The assay was stopped by adding 5 microliters of 3% orthophosphoric acid. The assay was transferred to a p81 filter plate and read in a scintillation counter of 30 sec/well. Note that this assay procedure was not followed for MKK1, which instead involved a two-step assay, and PKC alpha, which required the addition of lipid vesicles.
# MELK assay: MELK (5-20 mU diluted in 50 mM Tris pH 7.5, 0.1 mM EGTA, 0.1% b-mercaptoethanol, 1 mg/ml BSA) was assayed against a substrate peptide ([…]) (SEQ ID NO: 33) in a final volume of 25.5 μl containing 50 mM Tris pH 7.5, 0.05% b-mercaptoethanol, 200 μM substrate peptide, 10 mM magnesium acetate and 0.05 mM [33P-g-ATP] (50-1000 cpm/pmole) and incubated for 30 min at room temperature. Assays were stopped by addition of 5 μl of 0.5 M (3%) orthophosphoric acid and then harvested onto P81 Unifilter plates with a wash buffer of 50 mM orthophosphoric acid.
# [2] = biological target: PAK5 (Homo sapiens, UniProt Q9P286); experiment: Kinase screen: PAK5 (PAK7) assay
# Protocol: as §1, §2
# PAK5 (PAK7) assay: PAK5 (PAK7)(5-20 mU diluted in 50 mM Tris pH 7.5, 0.1 mM EGTA, 0.1% b-mercaptoethanol, 1 mg/ml BSA) was assayed against a substrate peptide ([…]) (SEQ ID NO: 30) in a final volume of 25.5 μl containing 50 mM Tris pH 7.5, 0.05% b-mercaptoethanol, 300 μM substrate peptide, 10 mM magnesium acetate and 0.02 mM [33P-g-ATP] (50-1000 cpm/pmole) and incubated for 30 min at room temperature. Assays were stopped by addition of 5 μl of 0.5 M (3%) orthophosphoric acid and then harvested onto P81 Unifilter plates with a wash buffer of 50 mM orthophosphoric acid.
# [3] = biological target: T1, ERK8 (Homo sapiens, UniProt Q8TD08); experiment: Kinase screen: ERK8 assay
# T1 sequence (Q8TD08 1-544): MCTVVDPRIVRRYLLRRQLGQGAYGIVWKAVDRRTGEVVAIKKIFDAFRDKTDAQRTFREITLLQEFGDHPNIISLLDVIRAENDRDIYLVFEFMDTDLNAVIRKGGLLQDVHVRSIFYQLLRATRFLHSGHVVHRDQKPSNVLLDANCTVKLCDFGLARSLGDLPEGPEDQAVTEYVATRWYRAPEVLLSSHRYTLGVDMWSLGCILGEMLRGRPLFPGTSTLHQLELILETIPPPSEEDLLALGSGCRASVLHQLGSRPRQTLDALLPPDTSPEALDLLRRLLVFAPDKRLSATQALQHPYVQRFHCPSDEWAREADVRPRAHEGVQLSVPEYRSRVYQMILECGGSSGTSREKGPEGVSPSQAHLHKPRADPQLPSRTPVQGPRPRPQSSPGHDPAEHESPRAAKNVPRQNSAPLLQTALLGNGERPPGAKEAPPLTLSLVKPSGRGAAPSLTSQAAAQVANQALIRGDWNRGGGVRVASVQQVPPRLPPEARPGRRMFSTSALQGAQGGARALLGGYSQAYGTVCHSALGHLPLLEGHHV
# Protocol: as §1, §2
# (§3) ERK8 assay: 5-20 mU of ERK8 (diluted in 50 mM Tris (pH 7.5), 0.1 mM EGTA, 1 mg/ml BSA, 0.1%, b-Mercaptoethanol) was assayed against MBP in a final volume of 25.5 μl containing 50 mM Tris (pH 7.5), 0.1 mM EGTA, 0.1%, b-Mercaptoethanol, 0.33 mg/ml MBP, 10 mM magnesium acetate and 0.005 mM [33P-g-ATP] (500-1000 cpm/pmole) and incubated for 30 mins at room temperature. Assays were stopped by addition of 5 μl of 0.5M (3%) orthophosphoric acid. Assays were harvested onto P81 Unifilter plates using a wash buffer of 50 mM orthophosphoric acid.
# [4] = biological target: PLK1 (Okadaic Acid) (Homo sapiens, UniProt P53350); experiment: Kinase screen: PLK1 (Okadaic Acid) assay
# Protocol: as §1, §2
# (50-1000 cpm/pmole) and incubated for 30 min at room temperature. Assays were stopped by addition of 5 μl of 0.5 M (3%) orthophosphoric acid and then harvested onto P81 Unifilter plates with a wash buffer of 50 mM orthophosphoric acid.
# [5] = biological target: HIPK2 (Homo sapiens, UniProt Q9H2X6); experiment: Kinase screen: HIPK2 assay
# Protocol: as §1, §2
# as §3, with “HIPK2” for “ERK8”
# [6] = 10 micromolar compound, read-out: mean activity remaining (as a percentage of the original activity), MELK
# [7] = 10 micromolar compound, read-out: mean activity remaining (as a percentage of the original activity), PAK5
# [8] = 10 micromolar compound, read-out: mean activity remaining (as a percentage of the original activity), ERK8
# [9] = 10 micromolar compound, read-out: mean activity remaining (as a percentage of the original activity), PLK 1 (Okadaic Acid)
# [10] = 10 micromolar compound, read-out: mean activity remaining (as a percentage of the original activity), HIPK2
# Sequence of MELK (Q14680 whole entry, species assumed): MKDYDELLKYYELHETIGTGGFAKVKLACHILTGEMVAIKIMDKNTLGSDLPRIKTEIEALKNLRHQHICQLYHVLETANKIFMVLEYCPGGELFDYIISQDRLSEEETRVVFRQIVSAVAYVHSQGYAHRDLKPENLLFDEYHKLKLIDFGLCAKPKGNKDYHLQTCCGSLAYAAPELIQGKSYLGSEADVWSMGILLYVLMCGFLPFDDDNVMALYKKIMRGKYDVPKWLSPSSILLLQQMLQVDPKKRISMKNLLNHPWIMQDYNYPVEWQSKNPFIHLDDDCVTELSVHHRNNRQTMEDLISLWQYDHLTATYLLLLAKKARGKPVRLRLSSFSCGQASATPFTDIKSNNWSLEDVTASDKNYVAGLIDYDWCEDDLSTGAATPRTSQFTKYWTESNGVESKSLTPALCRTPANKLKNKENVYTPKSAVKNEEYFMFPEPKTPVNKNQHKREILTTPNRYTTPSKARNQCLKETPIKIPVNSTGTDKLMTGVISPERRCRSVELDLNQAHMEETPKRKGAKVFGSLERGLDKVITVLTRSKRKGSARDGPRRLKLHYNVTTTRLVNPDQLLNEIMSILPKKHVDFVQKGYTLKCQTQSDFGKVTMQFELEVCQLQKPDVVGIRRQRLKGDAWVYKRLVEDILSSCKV
# Sequence of PLK1 (Okadaic Acid) (P53350 whole entry, species assumed): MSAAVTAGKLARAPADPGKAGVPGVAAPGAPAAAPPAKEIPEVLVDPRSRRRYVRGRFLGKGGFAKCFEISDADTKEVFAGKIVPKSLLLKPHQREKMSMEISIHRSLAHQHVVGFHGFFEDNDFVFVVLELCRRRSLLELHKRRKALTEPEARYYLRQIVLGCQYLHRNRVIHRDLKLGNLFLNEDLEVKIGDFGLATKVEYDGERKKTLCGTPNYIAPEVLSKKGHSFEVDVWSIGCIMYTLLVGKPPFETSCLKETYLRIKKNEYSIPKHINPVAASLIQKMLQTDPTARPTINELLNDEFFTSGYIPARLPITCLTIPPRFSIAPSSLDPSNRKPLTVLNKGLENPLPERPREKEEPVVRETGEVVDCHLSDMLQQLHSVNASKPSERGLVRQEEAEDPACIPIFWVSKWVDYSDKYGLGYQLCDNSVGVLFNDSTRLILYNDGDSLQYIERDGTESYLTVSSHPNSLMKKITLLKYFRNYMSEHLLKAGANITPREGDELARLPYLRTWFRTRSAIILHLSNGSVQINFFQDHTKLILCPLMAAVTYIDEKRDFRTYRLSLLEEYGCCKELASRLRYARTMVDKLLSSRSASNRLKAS
# Sequence of HIPK2 (Q9H2X6 whole entry, species assumed): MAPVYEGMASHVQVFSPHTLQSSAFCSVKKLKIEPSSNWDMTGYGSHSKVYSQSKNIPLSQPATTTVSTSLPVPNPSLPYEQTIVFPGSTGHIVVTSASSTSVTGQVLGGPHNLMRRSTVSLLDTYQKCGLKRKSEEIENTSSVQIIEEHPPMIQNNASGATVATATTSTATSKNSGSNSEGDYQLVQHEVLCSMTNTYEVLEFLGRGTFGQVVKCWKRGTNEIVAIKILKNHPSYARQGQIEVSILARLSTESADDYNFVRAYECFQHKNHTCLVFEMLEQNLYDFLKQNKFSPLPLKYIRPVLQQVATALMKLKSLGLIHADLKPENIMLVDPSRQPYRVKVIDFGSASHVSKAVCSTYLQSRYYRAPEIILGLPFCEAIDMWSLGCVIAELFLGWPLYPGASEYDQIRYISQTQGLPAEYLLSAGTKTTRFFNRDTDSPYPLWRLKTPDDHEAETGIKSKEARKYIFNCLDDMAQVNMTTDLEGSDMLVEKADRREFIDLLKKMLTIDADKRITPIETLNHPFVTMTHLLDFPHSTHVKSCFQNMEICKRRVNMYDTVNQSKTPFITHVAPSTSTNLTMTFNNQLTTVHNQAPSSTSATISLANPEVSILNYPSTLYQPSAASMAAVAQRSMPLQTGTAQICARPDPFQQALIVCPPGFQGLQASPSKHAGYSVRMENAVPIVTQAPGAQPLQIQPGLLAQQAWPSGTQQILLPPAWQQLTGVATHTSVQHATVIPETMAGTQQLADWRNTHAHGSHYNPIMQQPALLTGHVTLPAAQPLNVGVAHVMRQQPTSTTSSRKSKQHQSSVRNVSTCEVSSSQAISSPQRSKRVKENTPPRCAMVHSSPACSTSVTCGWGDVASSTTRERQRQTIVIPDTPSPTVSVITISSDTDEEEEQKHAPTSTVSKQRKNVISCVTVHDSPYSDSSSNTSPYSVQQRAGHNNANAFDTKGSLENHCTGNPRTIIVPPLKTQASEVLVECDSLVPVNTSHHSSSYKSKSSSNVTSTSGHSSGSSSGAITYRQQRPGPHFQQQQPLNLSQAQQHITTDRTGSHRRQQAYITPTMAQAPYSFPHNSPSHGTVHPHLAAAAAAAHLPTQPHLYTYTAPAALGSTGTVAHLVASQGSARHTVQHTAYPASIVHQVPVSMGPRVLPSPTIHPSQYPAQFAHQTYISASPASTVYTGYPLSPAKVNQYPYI
# Sequence of PAK5 (Q9P286 whole entry): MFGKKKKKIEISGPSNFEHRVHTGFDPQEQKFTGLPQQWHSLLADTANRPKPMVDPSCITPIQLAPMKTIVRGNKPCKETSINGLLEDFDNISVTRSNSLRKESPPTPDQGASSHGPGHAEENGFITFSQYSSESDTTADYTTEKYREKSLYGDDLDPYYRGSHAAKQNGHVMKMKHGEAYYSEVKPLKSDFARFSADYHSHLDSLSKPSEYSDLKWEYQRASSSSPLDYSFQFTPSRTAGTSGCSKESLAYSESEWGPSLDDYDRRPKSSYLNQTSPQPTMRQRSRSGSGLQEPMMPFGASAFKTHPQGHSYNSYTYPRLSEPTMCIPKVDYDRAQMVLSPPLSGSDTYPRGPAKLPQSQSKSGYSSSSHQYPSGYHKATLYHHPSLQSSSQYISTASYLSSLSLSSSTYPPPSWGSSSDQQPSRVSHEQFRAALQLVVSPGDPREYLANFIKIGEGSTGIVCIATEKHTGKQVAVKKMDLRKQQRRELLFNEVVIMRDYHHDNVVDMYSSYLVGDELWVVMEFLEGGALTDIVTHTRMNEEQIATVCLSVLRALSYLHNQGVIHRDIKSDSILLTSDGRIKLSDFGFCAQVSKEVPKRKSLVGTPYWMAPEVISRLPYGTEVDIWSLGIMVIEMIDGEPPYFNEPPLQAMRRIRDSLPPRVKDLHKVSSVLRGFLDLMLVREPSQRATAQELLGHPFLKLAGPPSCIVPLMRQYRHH
SMILES,"remaining activity at 10 µM [1, 6] [%]","remaining activity at 10 µM [2, 7] [%]","remaining activity at 10 µM [3, 8] [%]","remaining activity at 10 µM [4, 9] [%]","remaining activity at 10 µM [5, 10] [%]",also measured
CC(C)c1cnn2c(NCc3ccccc3F)cc(NCCCCCN)nc12 [ICEC-0232],,,,,,"mean activity remaining (as a percentage of the original activity), MELK ([1]; 10 micromolar compound): 62%; mean activity remaining (as a percentage of the original activity), PAK5 ([2]; 10 micromolar compound): 81%; mean activity remaining (as a percentage of the original activity), ERK8 ([3]; 10 micromolar compound): 23%; mean activity remaining (as a percentage of the original activity), PLK 1 (Okadaic Acid) ([4]; 10 micromolar compound): 125%; mean activity remaining (as a percentage of the original activity), HIPK2 ([5]; 10 micromolar compound): 49%"
CC(C)c1cnn2c(NCc3ccccc3)cc(NCCCCCCCN)nc12 [BS-181],,,,,,"remaining activity at 10 µM ([1]; MELK, 10 μM, read-out: Mean Remaining Enzyme Activity (%)): 63%; remaining activity at 10 µM ([2]; PAK5, 10 μM, read-out: Mean Remaining Enzyme Activity (%)): 80%; remaining activity at 10 µM ([3]; ERK8, 10 μM, read-out: Mean Remaining Enzyme Activity (%)): 32%; remaining activity at 10 µM ([4]; PLK1 (Okadaic Acid), 10 μM, read-out: Mean Remaining Enzyme Activity (%)): 108%; remaining activity at 10 µM ([5]; HIPK2, 10 μM, read-out: Mean Remaining Enzyme Activity (%)): 88%"
CC[C@H](CO)Nc1cc(NCc2ccccc2)n2ncc(C(C)C)c2n1 [ICEC0067],75,89,23,93,70,
C=C[C@H](CO)Nc1cc(NCc2ccccc2)n2ncc(C(C)C)c2n1 [ICEC0065],90,81,28,104,70,
"CC(C)c1cnn2c(NCc3ccccc3)cc(N[C@@H](CO)[C@H](O)CO)nc12 [ICEC0318, (3S)-3-(7-(Benzylamino)-3-isopropylpyrazolo[1,5-a]pyrimidin-5-ylamino)butane-1,2,4-triol]",88,65,26,97,73,
